For series [1], the system named is freshly isolated rat hepatocytes. Nature of the series: Uptake into freshly isolated rat hepatocytes. The settings on record: for Inhibition Rifampicine: uptake with OATP1B1/1B3 inhibitor Rifampicine 1:1, each 100 uM. It counts as cell-based. The method, then:
Freshly isolated rat hepatocytes were received as described before (Papeleu P. et al. (2006) Isolation of Rat Hepatocytes. In: Phillips I. R., Shephard E. A. (eds) Cytochrome P450 Protocols. Methods in Molecular Biology, vol 320. Humana Press, Totowa, NJ. https://doi.org/10.1385/1-59259-998-2:229). The rat hepatocytes were incubated (2.5·10^5 cells/well) for 2.5 to 4 h in collagen coated 24-well plates (Fa. Beckton Dickinson Biocoat, cell environments, Collagen I Cellware) in Williams E-medium (Fa. Sigma W1878) in an incubator (37° C., 5% CO2 and […]). After incubation the adherent hepatocytes were washed once with 37° C. Hepes carbonate transport buffer (500 μL/well). The test items and RC3 were prepared from stock solutions (180 to 500 mM concentration) in Hepes carbonate transport buffer at pH 7.4 to reach a final concentration of 100 μmol Gd/L. The specific uptake of the test item or RC3 into rat hepatocytes via OATP1B1 and OATP1B3 was challenged using a known OATP1B1/1B3 inhibitor (Rifampicine, Fa. Sigma R3501, test item and inhibitor 1:1 each 100 µM final concentration). The prepared rat hepatocyte plates were incubated with test solutions (500 μL/well) at 37° C. for 10 min using a thermoshaker (Fa. Grant Bio, PHMP). Triplicates were performed for each test item. After incubating the cells were washed once with cold PBS buffer (Fa. Gibco, Dulbeccos PBS (+)). After washing the intact hepatocytes were lysed by addition of 500 μL cold 0.01% Triton-X 100 in Millipore water for 1 h. The strongly hypo-osmolar water led to cell membrane rupture and the release of the intracellular Gd-compound. After 1 h 500 μL of 10 nM Terbium ICP-MS standard was added in 2% nitric acid and 0.01% Triton 100 before the Gadolinium concentrations in the lysate were measured using ICP-MS (Agilent 8900, singleQuad, integr. Time 0.3 s, no gas, 5 replicates, Gd m/z 157, Tb m/z 159). As a reference standard RC3 is used in the same well plate. The hepatocyte uptake of the test compound is calculated relative to RC3 (resulting in the unit % of RC3).

For series [2] the following is noted: 1.5 T, 37° C., Invest Radiol. 2005, cited from earlier work; for r1 plasma: bovine plasma instead of human plasma.
The conditions of series [3]: 37° C., from Robic et al. Invest Radiol. 2019, cited from earlier work.
Series [4] is described as follows: Relaxivity measurements at 1.41 T in water and human plasma. The note with it: 37° C., normalized to Gd. It counts as physicochemical. The method, then:
Relaxivity measurements at 1.41 T were performed using a MiniSpec mq60 spectrometer (Bruker Analytik, Karlsruhe, Germany) operating at a resonance frequency of 60 MHz and a temperature of 37° C. The T1 relaxation times were determined using the standard inversion recovery (IR) method with a fixed relaxation delay of at least 5×T1. The variable inversion time (TI) was calculated automatically by the standard software of the MiniSpec mq60 (8 steps). The T2 measurements were performed by using a Carr-Purcell-Meiboom-Gill (CPMG) pulse sequence, applying a relaxation delay of at least 5×T1.
Each relaxivity measurement was performed using three different Gd concentrations (3 concentrations between 0.05 and 2 mM). The T1 and T2 relaxation times of the example compounds were measured in water and human plasma. Human plasma preparation: For each experiment fresh blood was taken from a volunteer using 10 mL citrate-tubes (Sarstedt S-Monovette 02.1067.001, 10 mL, Citrate). The 10 mL citrate-tubes were carefully inverted 10 times to mix blood and anticoagulant and centrifuged for 15 min at 1811 g at RT (Eppendorf, Centrifuge 5810R).
The relaxivities ri (where i=1, 2) were calculated based on the measured relaxation rates Ri in water and plasma:
where Ri(0) represent the relaxation rate of the respective solvent and CGd the concentration of the compound normalized to the Gadolinium. The Gadolinium concentrations of the investigated solutions were verified by Inductively Coupled Plasma Mass Spectrometry (ICP-MS Agilent 7500a, Waldbronn, Germany).

Structures are written as SMILES. Like-named read-outs stand apart in the source and are kept apart here. Marks after values point to notes of the source that are not given here.

With `O=C([O-])CN(CCN(CC(=O)[O-])CC(=O)[O-])CCN(CC(=O)[O-])C(COCc1ccccc1)C(=O)[O-].[Gd+3].[H+].[H+]` (stereo not shown) [RC 4, gadobenic acid, reference compound], the Uptake rat hepatocytes in series [1] (100 μmol Gd/L, 10 min, 37° C., Gd in lysate by ICP-MS, relative to RC3) is recorded as 9 % of RC3. Further, the “Inhibition Rifampicine” value in series [1] stood at 79 % inhibition. In series [2], the r1 plasma was 6.3^# L·mmol^−1·s^−1 and the r1 water is recorded as 4.0^# L·mmol^−1·s^−1.

Take `CCOc1ccc(CC(CN(CCN(CC(=O)[O-])CC(=O)[O-])CC(=O)[O-])N(CC(=O)[O-])CC(=O)[O-])cc1.[Gd+3].[Na+].[Na+]` (stereo not shown) [RC 3, gadoxetate disodium]: the “Inhibition Rifampicine” value in series [1] is 97 % inhibition. Besides, in series [2], the r1 plasma was 6.9^# L·mmol^−1·s^−1 and the r1 water is 4.7^# L·mmol^−1·s^−1.

Turning to `O=C(CCC(C(=O)[O-])N1CCN(C(CCC(=O)NCC(O)CO)C(=O)[O-])Cc2cccc(n2)CN(C(CCC(=O)NCC(O)CO)C(=O)[O-])CC1)NCC(O)CO.[Gd+3]` (stereo not shown) [Compound 11], the r1 human plasma in series [3] (human plasma) was 12.8** L·mmol^−1·s^−1. Moreover, in series [3] (water), the r1 water is given as 12.2** L·mmol^−1·s^−1.

In series [4], `CCOCCOCCOc1ccc(CCC[C@@H](C(=O)O)N2CCN([C@@H](CO)C(=O)[O-])CCN([C@@H](CO)C(=O)[O-])CCN([C@@H](CO)C(=O)[O-])CC2)cc1.[Gd+3]` [Compound 15] returned a r1 human plasma of 8.7 L/mmol/s and a r1 water of 5.1 L/mmol/s. Also, the “Inhibition Rifampicine” value in series [1] amounted to 94 % inhibition.

For the molecule `O=C([O-])CN1CCN(CC(=O)[O-])CCN([C@H](CO)[C@H](O)CO)CCN(CC(=O)[O-])CC1.[Gd+3]` (racemic) [RC 1, gadobutrol], in series [2], the r1 plasma is 3.6^# L·mmol^−1·s^−1 and the r1 water is recorded as 2.9^# L·mmol^−1·s^−1.

In series [4], `CCCCOc1cccc(CCC[C@@H](C(=O)O)N2CCN([C@@H](CO)C(=O)[O-])CCN([C@@H](CO)C(=O)[O-])CCN([C@@H](CO)C(=O)[O-])CC2)c1.[Gd+3]` [Compound 19] yielded a r1 human plasma of 18.0 L/mmol/s and a r1 water of 4.9 L/mmol/s. Moreover, in series [1], the “Inhibition Rifampicine” value was determined as 90 % inhibition.

In series [4], `CCOCCOc1ccc(CC2CN(CC(=O)[O-])CCN(CC(=O)[O-])CCN(CC(=O)[O-])CCN2CC(=O)O)cc1.[Gd+3]` (stereo not shown) [Compound 22] gave a r1 human plasma of 6.6 L/mmol/s and a r1 water of 4.8 L/mmol/s. In addition, the “Inhibition Rifampicine” value in series [1] is listed as 94 % inhibition.

On to `CCCCOc1ccc(CC2CN(CC(=O)[O-])CCN(CC(=O)[O-])CCN(CC(=O)O)CCN2CC(=O)[O-])cc1.[Gd+3]` (stereo not shown) [Compound 24], for which, in series [4], the r1 human plasma was 9.8 L/mmol/s and the r1 water was 5.3 L/mmol/s. In addition, the “Inhibition Rifampicine” value in series [1] came to 86 % inhibition.

Regarding `CNC[C@H](O)[C@@H](O)[C@H](O)[C@H](O)CO.O=C([O-])CN1CCN(CC(=O)[O-])CCN(CC(=O)O)CCN(CC(=O)[O-])CC1.[Gd+3]` [RC 2, gadoterate meglumine], in series [2], the r1 plasma is given as 5.2^# L·mmol^−1·s^−1 and the r1 water is 3.3^# L·mmol^−1·s^−1.

These data come from US20260077069A1, “COMBINATIONS OF CONTRAST AGENTS” (BAYER AKTIENGESELLSCHAFT, priority 2022, published 2026).
